According to patent US20090042969A1, “Use of Specific Trifluoromethyl Ketones for Preventing and Treating Pancreatitis” (priority 2005, published 2009):
Entries after “also recorded” stand apart in the source; their conditions may differ. Where two headings read alike, the source gives them in different places.

Key:
[1] = target: T1, human neutrophil elastase (Homo sapiens, UniProt P08246); test: In vitro inhibitor specificity: neutrophil elastase activity; type: biochemical
T1 construct: This commercial product was purified from human serum by HPLC; purchased Calbiochem; host or cells: purified from human serum
T1 sequence (P08246 30-267): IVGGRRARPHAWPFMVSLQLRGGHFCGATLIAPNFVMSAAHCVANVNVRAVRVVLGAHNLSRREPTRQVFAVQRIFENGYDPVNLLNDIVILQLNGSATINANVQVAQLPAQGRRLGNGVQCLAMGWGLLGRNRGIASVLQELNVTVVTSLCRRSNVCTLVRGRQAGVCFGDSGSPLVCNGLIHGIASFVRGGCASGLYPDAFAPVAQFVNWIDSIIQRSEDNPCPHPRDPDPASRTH
Protocol: Human neutrophil elastase was purchased from Calbiochem (San Diego, Calif., U.S.A.). This commercial product was purified from human serum by HPLC (protein concentration >20 units/mg of protein specific activity; in 50 mM sodium acetate pH 5.5 and 200 mM sodium chloride; purity >95%). […] Porcine pancreatic elastase was purchased from Calbiochem and was purified from porcine pancreas. The specific activity was 50 units/mg of protein in 50 mM potassium phosphate buffer, pH 7.0. […]

pancreatic elastase = target: T2, pancreatic elastase (Sus scrofa, UniProt P00772); test: In vitro inhibitor specificity: pancreatic elastase activity; type: biochemical, porcine
T2 construct: was purified from porcine pancreas; purchased Calbiochem; host or cells: purified from porcine pancreas
T2 sequence (P00772 27-266): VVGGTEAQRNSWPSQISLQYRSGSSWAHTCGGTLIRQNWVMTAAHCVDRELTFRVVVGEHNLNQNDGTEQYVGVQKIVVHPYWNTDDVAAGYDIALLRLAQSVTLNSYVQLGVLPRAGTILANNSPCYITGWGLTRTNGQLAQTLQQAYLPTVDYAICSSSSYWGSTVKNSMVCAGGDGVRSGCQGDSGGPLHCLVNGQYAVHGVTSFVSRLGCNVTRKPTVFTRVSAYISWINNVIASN
Protocol: (§1) Caerulein was obtained from Pharmacia, Freiburg, Germany. Human neutrophil elastase was purchased from Calbiochem (San Diego, Calif., U.S.A.). This commercial product was purified from human serum by HPLC (protein concentration >20 units/mg of protein specific activity; in 50 mM sodium acetate pH 5.5 and 200 mM sodium chloride; purity >95%). Human myeloperoxidase was purchased from Calbiochem and purified from blood by HPLC (1 mg/10 ml protein concentration, 150 to 200 units mg protein specific protein activity, in 100 mM sodium chloride, 50 mM sodium acetate, purity >95%). Porcine pancreatic elastase was purchased from Calbiochem and was purified from porcine pancreas. […]
(§2) The trypsin activity (10 mU), myeloperoxidase activity (100 mU) and the neutrophil elastase activity (10 mU) was determined by using the specific fluorogenic substrates [CBZ-Ile-Pro-Arg]2-rhodamine 110 or [CBZ-Ala4]-aminomethylcoumarin (AMC) in 100 mM tris-HCl buffer (pH 8.0), which contained 5 mM CaCl2, 10 μM substrate (final concentration) and 10 mU of bovine trypsin in a volume of 150 μl, at an excitation wavelength of 485 nm and an emission wavelength of 530 nm or an excitation wavelength of 350 nm and an emission wavelength of 460 nm at 37° C. The initial rates of the substrate hydrolysis were measured as arbitrary fluorescence units per minute. […]

trypsin = target: T3, trypsin (Bos taurus, UniProt P00760); test: In vitro inhibitor specificity: trypsin activity; type: biochemical, bovine; conditions: compound II 1 nM to 1 mM
T3 sequence (P00760 24-246): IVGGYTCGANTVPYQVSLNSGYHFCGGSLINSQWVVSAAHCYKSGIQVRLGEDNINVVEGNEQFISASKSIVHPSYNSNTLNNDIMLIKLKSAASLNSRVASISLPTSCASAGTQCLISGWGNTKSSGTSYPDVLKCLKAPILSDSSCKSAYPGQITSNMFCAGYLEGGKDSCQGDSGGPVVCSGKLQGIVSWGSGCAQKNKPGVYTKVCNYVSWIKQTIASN
Protocol: The trypsin activity (10 mU), myeloperoxidase activity (100 mU) and the neutrophil elastase activity (10 mU) was determined by using the specific fluorogenic substrates [CBZ-Ile-Pro-Arg]2-rhodamine 110 or [CBZ-Ala4]-aminomethylcoumarin (AMC) in 100 mM tris-HCl buffer (pH 8.0), which contained 5 mM CaCl2, 10 μM substrate (final concentration) and 10 mU of bovine trypsin in a volume of 150 μl, at an excitation wavelength of 485 nm and an emission wavelength of 530 nm or an excitation wavelength of 350 nm and an emission wavelength of 460 nm at 37° C. The initial rates of the substrate hydrolysis were measured as arbitrary fluorescence units per minute. The cathepsin B activity (100 mU) and cathepsin L activity (100 mU) were then determined in 0.25 M sodium acetate buffer (pH 5.0), which contained 2 mM EDTA 1 mM DTT, 10 μM of the specific substrate CBZ-[Arg]2-aminomethylcoumarin or 10 μM [CBZ-Phe-Arg]-rhodamine 110 (final concentration) in a final volume of 150 μl, at an excitation wavelength of 350 nm and an emission wavelength of 460 nm or 485 nm and an emission wavelength of 530 nm at 37° C.
The results were calculated in percent of the initial enzyme activity (Kukor et al., 2002).

myeloperoxidase = target: T4, myeloperoxidase (Homo sapiens, UniProt P05164); test: In vitro inhibitor specificity: myeloperoxidase activity; type: biochemical; conditions: compound II 1 nM to 1 mM
T4 construct: purified from blood by HPLC; purchased Calbiochem; host or cells: purified from blood
T4 sequence (P05164 279-745 limits assumed): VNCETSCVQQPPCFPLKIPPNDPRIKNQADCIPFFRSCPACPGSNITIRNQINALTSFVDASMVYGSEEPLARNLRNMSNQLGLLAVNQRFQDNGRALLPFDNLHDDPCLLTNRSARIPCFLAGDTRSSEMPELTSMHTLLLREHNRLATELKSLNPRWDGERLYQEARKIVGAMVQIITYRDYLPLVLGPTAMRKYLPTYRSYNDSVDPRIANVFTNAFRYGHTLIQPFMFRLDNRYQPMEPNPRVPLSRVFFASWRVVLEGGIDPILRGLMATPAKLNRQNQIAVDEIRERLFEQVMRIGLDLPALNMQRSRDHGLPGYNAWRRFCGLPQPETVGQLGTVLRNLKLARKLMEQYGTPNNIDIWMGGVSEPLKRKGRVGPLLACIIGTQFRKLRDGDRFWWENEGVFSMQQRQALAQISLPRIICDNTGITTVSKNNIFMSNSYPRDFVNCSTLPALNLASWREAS
T4 sequence (P05164 165-273 limits assumed): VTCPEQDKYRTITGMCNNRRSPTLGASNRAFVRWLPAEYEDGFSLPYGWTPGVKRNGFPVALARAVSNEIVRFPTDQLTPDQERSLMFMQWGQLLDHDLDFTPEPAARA
Protocol: as §1, §2

cathepsin B = target: T5, cathepsin B (Homo sapiens, UniProt P07858); test: In vitro inhibitor specificity: cathepsin B activity; type: biochemical; conditions: compound II 1 nM to 1 mM
T5 construct: This commercial product was purified from human liver by HPLC; purchased Calbiochem; host or cells: purified from human liver

cathepsin L = target: T6, cathepsin L (Homo sapiens, UniProt P07711); test: In vitro inhibitor specificity: cathepsin L activity; type: biochemical; conditions: compound II 1 nM to 1 mM
T6 construct: prepared from human liver; purchased Calbiochem; host or cells: prepared from human liver
T6 sequence (P07711 114-333): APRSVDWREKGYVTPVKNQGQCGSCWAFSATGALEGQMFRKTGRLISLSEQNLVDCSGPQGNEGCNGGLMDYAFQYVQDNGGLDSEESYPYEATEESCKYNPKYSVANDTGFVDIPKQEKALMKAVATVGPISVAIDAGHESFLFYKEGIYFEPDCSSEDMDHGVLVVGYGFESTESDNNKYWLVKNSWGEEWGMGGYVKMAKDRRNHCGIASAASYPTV

[2] = Pharmacokinetics (half-life, AUC, bioavailability); set-up: species or system rats, hamsters and dogs; conditions: rat, hamster, dog, in vivo
neutrophil elastase = test: Inhibition of neutrophil elastase after oral or intravenous administration; type: in vivo
[3] = test system: caerulein-induced pancreatitis; test: Pancreatic water content (edema) in caerulein-induced pancreatitis; type: in vivo, rat; conditions: oral 240 mg/kg per day
Protocol: (§3) Male Wistar rats (140 to 250 g) were anesthetized with pentobarbital (30 mg/kg). A cannula was placed in the jugular vein, and a supramaximal concentration of caerulein (10 μg/kg per hour) was administered to the animals by infusion for four and twelve hours. […] Animals which received a saline solution as infusion and were fed with compound II through a tube served as control. Each treatment group consisted of five animals. After the exsanguination under ether anesthesia, the pancreas was quickly removed and freed of fat, and tissue blocks were fixed in 5% paraformaldehyde for the histology in paraffin-embedded sections. The largest portion of the pancreas was frozen in liquid nitrogen and stored at −80° C. for later protein analysis and for detection of the enzyme activity.
(§4) The animals were sacrificed after four and twelve hours, and pancreatic tissue, serum and lung tissue were collected for further analyses (see FIG. 2).
Determination of the pancreatic water content: the water content of the pancreas was determined by comparing the freshly obtained tissue (wet weight) with the weight of the same sample after drying (dry weight). In order to ensure complete drying, the tissue was incubated at […] for 24 hours, a constant weight being reached. The results were represented as percentage of the difference between the wet weight and the dry weight divided by the original wet weight.

[4] = test system: caerulein-induced pancreatitis; test: Myeloperoxidase activity in pancreatic homogenates in caerulein-induced pancreatitis; type: in vivo, rat; conditions: oral 240 mg/kg per day
Protocol: as §3, §4
To measure the myeloperoxidase (MPO) activity, the tissue was thawed and homogenized on ice in 20 mM potassium phosphate buffer (pH 7.4) and centrifuged at 20 000 g at 4° C. for 10 minutes. The pellet was resuspended in […] potassium phosphate buffer (pH 6.0) which contained 0.5% cethyltrimethylammonium bromide. […]
The original increase in the absorption at 450 nm was measured at room temperature using a Dynatech MR 5000 ELISA reader. […]

[5] = test system: caerulein-induced pancreatitis; test: Morphological damage of the pancreas in caerulein-induced pancreatitis; type: in vivo, rat
Protocol: as §3, §4

[6] = test system: caerulein-induced pancreatitis; test: Serum amylase activity (hyperamylasemia) in caerulein-induced pancreatitis; type: in vivo, rat; conditions: oral administration; four and twelve hours of pancreatitis
Protocol: as §3, §4

[7] = test system: caerulein-induced pancreatitis; test: Myeloperoxidase activity and morphology of the lung during caerulein-induced pancreatitis; type: in vivo, rat
Protocol: as §3, §4
Pancreatitis influences not only the pancreas but also leads to a systemic inflammatory response which affects other organs such as the kidneys or the lung. […] The morphological differences in the lung tissues during caerulein-induced pancreatitis consisted of accumulations of alveolar fluid and a progressive thickening, hyperemia and neutrophil infiltration of the intraalveolar tissue. […]

[8] = compound II together with caerulein

inhibitory activity for human neutrophil elastase by comparison with pancreatic elastase [1]: five times higher
Ki (pancreatic elastase): 0.2 µM
IC50 (pancreatic elastase; FIG. 1): 1 µM
influence on trypsin activity (trypsin): not significantly influenced
influence on trypsin activity (trypsin; listed as Compound II): does not inhibit
influence on myeloperoxidase activity (myeloperoxidase; listed as Compound II): does not inhibit
influence on cathepsin B activity (cathepsin B): not significantly influenced
influence on cathepsin B activity (cathepsin B; listed as Compound II): does not inhibit
influence on cathepsin L activity (cathepsin L): not significantly influenced
influence on cathepsin L activity (cathepsin L; listed as Compound II): does not inhibit
AUC ([2]; intravenous, read-out: intravenous AUC): 1360 to 3180 ng·h/mL
bioavailability ([2]; oral versus intravenous AUC, read-out: percentage bioavailability): 26 to 82%
AUC ([2]; oral, read-out: oral bioavailability (AUC)): 355 to 1400 ng·h/mL
half-life ([2]; rats, hamsters and dogs, read-out: biological half-life): 0.82 to 2 h
change in the water content of the pancreas ([3]; compound II alone (control 2), no caerulein): did not lead to a significant change
SMILES: COc1ccc(C(=O)N[C@H](C(=O)N2CCC[C@H]2C(=O)N[C@H](C(=O)C(F)(F)F)C(C)C)C(C)C)cc1 [compound II]
influence on myeloperoxidase activity (myeloperoxidase): not significantly influenced; also recorded: excluded
dose to inhibit 50% of the enzyme activity (neutrophil elastase; intravenous administration): 0.59 mg/kg of body weight
dose to inhibit 50% of the enzyme activity (neutrophil elastase; oral administration): 4.9 mg/kg of body weight
inhibition of neutrophil elastase (neutrophil elastase; oral administration of 10 mg/kg of body weight): 84%
formation of pancreatic edemas (water content) ([3]; four and twelve hours after starting caerulein infusion): significant reduction
reduction in MPO activity in pancreatic tissue [4]: more than 50%
morphological changes like those observed in acute pancreatitis ([5]; compound II alone, no caerulein): did not lead to any morphological changes
development of the interstitial edema and the intracellular vacuolization [5, 8]: prevented
number of infiltrating inflammatory cells in pancreas [5, 8]: greatly reduced
amylase activity in serum [6]: significantly reduced
morphological differences in lung tissue (alveolar fluid, thickening, hyperemia, neutrophil infiltration) [7]: reduced
MPO activity in lung tissue ([7]; effect greater after twelve than four hours): significant reduction
